Each molecule was assayed against T1, PARP1 (Homo sapiens, UniProt P09874) (assay: PARP1 Biochemical Assay (BPS Bioscience kit, chemiluminescence)). Details: histone-coated plate, biotinilated NAD+, 25° C. for 60 min, luminescence, read-out: PARP 1 inhibition IC50.
T1 construct: purchased BPS Bioscience
Method: The assay was performed using BPS Bioscience kit. The 96-well strip plate was coated with 50 μl of histone mixture and incubated at 4° C. overnight. Next day the wells were blocked by adding 100 μl of blocking buffer. The plate was washed and 25 μl of appropriate concentration of PARP1 (25-75 ng/well) was added in all the Test and Positive control wells. In Negative control wells enzyme was replaced with 25 μl of water. To it 5 μl each of 10×PARP assay buffer and activated DNA was added in all the wells (Test, Positive and Negative control wells). 10× concentration of test compounds were prepared and 5 μl test compounds were added respective wells. Reaction volume was made up to 45 μl by adding water to all the wells. Finally, 5 μl of 10×PARP assay mixture containing biotinilated NAD^+ was added in each well and the plate was incubated at ambient temperature (25° C.) for 60 min. After washing the plate 50 μl of Streptavidin-HRP was added in each well and incubated the plate at RT for 30 min. The plate was washed and the luminescence was read in PHERAStar plate reader after adding 100 μl of chemiluminescent substrate.
PARP inhibition was calculated using the following formula: % PARP inhibition=100−[(RLU test compound treated sample−RLU negative control)/(RLU Positive control−RLU negative control)×100]
IC50 values were calculated by plotting % inhibition against the respective concentrations of test compounds using GraphPad Prism 5.

T1 sequence (P09874 whole entry): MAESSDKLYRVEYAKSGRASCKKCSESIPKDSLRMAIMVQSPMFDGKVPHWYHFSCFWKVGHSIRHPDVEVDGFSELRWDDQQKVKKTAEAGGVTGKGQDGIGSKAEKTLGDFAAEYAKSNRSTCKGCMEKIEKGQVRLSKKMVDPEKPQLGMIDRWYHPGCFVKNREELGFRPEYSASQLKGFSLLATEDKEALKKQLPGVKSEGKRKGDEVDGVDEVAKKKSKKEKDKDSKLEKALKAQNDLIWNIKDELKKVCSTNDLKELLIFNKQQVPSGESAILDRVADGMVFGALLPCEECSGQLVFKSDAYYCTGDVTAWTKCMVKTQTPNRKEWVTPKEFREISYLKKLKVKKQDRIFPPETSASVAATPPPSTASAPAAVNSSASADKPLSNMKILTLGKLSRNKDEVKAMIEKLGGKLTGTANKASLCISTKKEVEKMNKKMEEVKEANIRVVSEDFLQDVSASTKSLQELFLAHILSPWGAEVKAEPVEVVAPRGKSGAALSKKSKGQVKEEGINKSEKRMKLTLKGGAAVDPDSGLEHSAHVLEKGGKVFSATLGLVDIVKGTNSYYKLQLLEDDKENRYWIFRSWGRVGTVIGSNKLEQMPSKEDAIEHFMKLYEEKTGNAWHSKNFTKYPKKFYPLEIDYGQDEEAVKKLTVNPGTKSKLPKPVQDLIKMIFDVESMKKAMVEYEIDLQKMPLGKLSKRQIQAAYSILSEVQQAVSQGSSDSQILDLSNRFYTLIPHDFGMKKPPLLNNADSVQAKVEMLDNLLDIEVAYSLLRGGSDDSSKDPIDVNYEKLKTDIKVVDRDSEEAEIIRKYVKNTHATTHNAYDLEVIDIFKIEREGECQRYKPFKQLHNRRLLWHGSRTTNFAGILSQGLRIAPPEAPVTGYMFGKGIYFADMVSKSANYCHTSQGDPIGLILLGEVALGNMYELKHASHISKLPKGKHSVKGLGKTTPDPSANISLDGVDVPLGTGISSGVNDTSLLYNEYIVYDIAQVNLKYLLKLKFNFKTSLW

**Q.** How did the IC50 turn out when O=c1[nH]c([C@H]2CC[C@H](N3CCN(c4ccc(F)cc4)CC3)C2)nc2c1CC1(CC2)CC1 [Compound 149, 2′-((1S,3S)-3-(4-(4-fluorophenyl)piperazin-1-yl)cyclopentyl)-7′,8′-dihydro-3′H-spiro[cyclopropane-1,6′-quinazolin]-4′(5′H)-one] was run?
**A.** 1 to 500 nM

**Q.** For CNC(=O)c1ccc(N2CCN([C@H]3C=C(c4nc5c(c(=O)[nH]4)CC4(CC5)CC4)CC3)CC2)c(Cl)c1 [Compound 134, (R)-3-chloro-N-methyl-4-(4-(3-(4′-oxo-4′,5′,7′,8′-tetrahydro-3′H-spiro[cyclopropane-1,6′-quinazolin]-2′-yl)cyclopent-2-en-1-yl)piperazin-1-yl)benzamide], which IC50 is on record?
**A.** 1 to 500 nM

**Q.** For O=c1[nH]c(C2=C[C@H](N3CCN(c4ccc(F)c(Cl)c4)CC3)CC2)nc2c1CC1(CC2)CC1 [Compound 64, (R)-2′-(3-(4-(3-chloro-4-fluorophenyl)piperazin-1-yl)cyclopent-1-en-1-yl)-7′,8′-dihydro-3′H-spiro[cyclopropane-1,6′-quinazolin]-4′(5′H)-one], which IC50 is on record?
**A.** 501 to 5000 nM

**Q.** With O=c1[nH]c(C2=C[C@H](N3CCN(c4cncc(F)c4)CC3)CC2)nc2c1CC1(CC2)CC1 [Compound 142, (R)-2′-(3-(4-(5-fluoropyridin-3-yl)piperazin-1-yl)cyclopent-1-en-1-yl)-7′,8′-dihydro-3′H-spiro[cyclopropane-1,6′-quinazolin]-4′(5′H)-one] as the molecule, how does the IC50 read?
**A.** 1 to 500 nM

**Q.** With O=c1[nH]c(CCCN2CCN(c3ccccc3F)CC2)nc2c1CC1(CC2)CC1 [Compound 28, 2′-(3-(4-(2-fluorophenyl)piperazin-1-yl)propyl)-7′,8′-dihydro-3′H-spiro[cyclopropane-1,6′-quinazolin]-4′(5′H)-one] as the molecule, how does the IC50 read?
**A.** 1 to 500 nM

**Q.** For Cc1ccc(N2CCN([C@H]3C=C(c4nc5c(c(=O)[nH]4)CC4(CC5)CC4)CC3)CC2)c(Cl)c1 [Compound 92, (R)-2′-(3-(4-(2-chloro-4-methylphenyl)piperazin-1-yl)cyclopent-1-en-1-yl)-7′,8′-dihydro-3′H-spiro[cyclopropane-1,6′-quinazolin]-4′(5′H)-one], which IC50 is on record?
**A.** 1 to 500 nM

**Q.** For O=c1[nH]c([C@H]2CC[C@H](N3CCN(c4ccc(Cl)cc4)CC3)C2)nc2c1CC1(CC2)CC1 [Compound 119, 2′-((1S,3S)-3-(4-(4-chlorophenyl)piperazin-1-yl)cyclopentyl)-7′,8′-dihydro-3′H-spiro[cyclopropane-1,6′-quinazolin]-4′(5′H)-one], which IC50 is on record?
**A.** 1 to 500 nM

**Q.** How did the IC50 turn out when O=c1[nH]c(C2=C[C@@H](N3CC=C(c4ccc(Cl)cc4)CC3)CC2)nc2c1CC1(CC2)CC1 [Compound 47, (S)-2′-(3-(4-(4-chlorophenyl)-5,6-dihydropyridin-1(2H)-yl)cyclopent-1-en-1-yl)-7′,8′-dihydro-3′H-spiro[cyclopropane-1,6′-quinazolin]-4′(5′H)-one] was run?
**A.** 1 to 500 nM

**Q.** How did the IC50 turn out when O=c1[nH]c(C2=C[C@H](N3CCN(c4ccc(Cl)cc4F)CC3)CC2)nc2c1CC1(CC2)CC1 [Compound 63, (R)-2′-(3-(4-(4-chloro-2-fluorophenyl)piperazin-1-yl)cyclopent-1-en-1-yl)-7′,8′-dihydro-3′H-spiro[cyclopropane-1,6′-quinazolin]-4′(5′H)-one] was run?
**A.** 1 to 500 nM

**Q.** With O=c1[nH]c(C2=C[C@H](N3CCN(c4ncc(Cl)cc4F)CC3)CC2)nc2c1CC1(CC2)CC1 [Compound 146, (R)-2′-(3-(4-(5-chloro-3-fluoropyridin-2-yl)piperazin-1-yl)cyclopent-1-en-1-yl)-7′,8′-dihydro-3′H-spiro[cyclopropane-1,6′-quinazolin]-4′(5′H)-one] as the molecule, how does the IC50 read?
**A.** 1 to 500 nM

**Q.** For Cc1ccc(N2CCN([C@H]3C=C(c4nc5c(c(=O)[nH]4)CC4(CC5)CC4)CC3)CC2)cc1C [Compound 136, (R)-2′-(3-(4-(3,4-dimethylphenyl)piperazin-1-yl)cyclopent-1-en-1-yl)-7′,8′-dihydro-3′H-spiro[cyclopropane-1,6′-quinazolin]-4′(5′H)-one], which IC50 is on record?
**A.** 501 to 5000 nM

**Q.** How did the IC50 turn out when O=c1[nH]c(C2=C[C@H](N3CCN(c4c(F)cccc4Cl)CC3)CC2)nc2c1CC1(CC2)CC1 [Compound 139, (R)-2′-(3-(4-(2-chloro-6-fluorophenyl)piperazin-1-yl)cyclopent-1-en-1-yl)-7′,8′-dihydro-3′H-spiro[cyclopropane-1,6′-quinazolin]-4′(5′H)-one] was run?
**A.** 5000 to 500000 nM

**Q.** How did the IC50 turn out when Cc1cccc(N2CCN([C@H]3C=C(c4nc5c(c(=O)[nH]4)CC4(CC5)CC4)CC3)CC2)c1 [Compound 85, (R)-2′-(3-(4-(m-tolyl)piperazin-1-yl)cyclopent-1-en-1-yl)-7′,8′-dihydro-3′H-spiro[cyclopropane-1,6′-quinazolin]-4′(5′H)-one] was run?
**A.** 1 to 500 nM

**Q.** How did the IC50 turn out when Cc1ccc(N2CCN(CCCc3nc4c(c(=O)[nH]3)CC3(CC4)CC3)CC2)cc1 [Compound 32, 2′-(3-(4-(p-tolyl)piperazin-1-yl)propyl)-7′,8′-dihydro-3′H-spiro[cyclopropane-1,6′-quinazolin]-4′(5′H)-one] was run?
**A.** 1 to 500 nM

**Q.** O=c1[nH]c(C2=C[C@H](N3CCN(c4cccc(F)c4F)CC3)CC2)nc2c1CC1(CC2)CC1 [Compound 100, (R)-2′-(3-(4-(2,3-difluorophenyl)piperazin-1-yl)cyclopent-1-en-1-yl)-7′,8′-dihydro-3′H-spiro[cyclopropane-1,6′-quinazolin]-4′(5′H)-one] was tested. Which IC50 did it give?
**A.** 1 to 500 nM

**Q.** How did the IC50 turn out when Cc1ccc(N2CCN([C@H]3C=C(c4nc5c(c(=O)[nH]4)CC4(CC5)CC4)CC3)CC2)cc1 [Compound 73, (R)-2′-(3-(4-(p-tolyl)piperazin-1-yl)cyclopent-1-en-1-yl)-7′,8′-dihydro-3′H-spiro[cyclopropane-1,6′-quinazolin]-4′(5′H)-one] was run?
**A.** 1 to 500 nM

**Q.** How did the IC50 turn out when O=c1[nH]c([C@H]2CC[C@@H](N3CCN(c4ccc(Cl)cc4)CC3)C2)nc2c1CC1(CC2)CC1 [Compound 120, 2′-((1S,3R)-3-(4-(4-chlorophenyl)piperazin-1-yl)cyclopentyl)-7′,8′-dihydro-3′H-spiro[cyclopropane-1,6′-quinazolin]-4′(5′H)-one] was run?
**A.** 501 to 5000 nM

**Q.** How did the IC50 turn out when O=c1[nH]c([C@@H]2CC[C@H](N3CCN(c4cccc(F)c4)CC3)C2)nc2c1CC1(CC2)CC1 [Compound 153, 2′-((1R,3S)-3-(4-(3-fluorophenyl)piperazin-1-yl)cyclopentyl)-7′,8′-dihydro-3′H-spiro[cyclopropane-1,6′-quinazolin]-4′(5′H)-one] was run?
**A.** 5000 to 500000 nM

**Q.** With O=c1[nH]c(C2=C[C@H](N3CCN(c4ccc(Cl)cc4Cl)CC3)CC2)nc2c1CC1(CC2)CC1 [Compound 65, (R)-2′-(3-(4-(2,4-dichlorophenyl)piperazin-1-yl)cyclopent-1-en-1-yl)-7′,8′-dihydro-3′H-spiro[cyclopropane-1,6′-quinazolin]-4′(5′H)-one] as the molecule, how does the IC50 read?
**A.** 1 to 500 nM

**Q.** With Cc1cccc(N2CCN([C@H]3C=C(c4nc5c(c(=O)[nH]4)CC4(CC5)CC4)CC3)CC2)n1 [Compound 145, (R)-2′-(3-(4-(6-methylpyridin-2-yl)piperazin-1-yl)cyclopent-1-en-1-yl)-7′,8′-dihydro-3′H-spiro[cyclopropane-1,6′-quinazolin]-4′(5′H)-one] as the molecule, how does the IC50 read?
**A.** 1 to 500 nM

**Q.** How did the IC50 turn out when O=C1CN(c2ccc(F)cc2)CCN1CCCc1nc2c(c(=O)[nH]1)CC1(CC2)CC1 [Compound 33, 2′-(3-(4-(4-fluorophenyl)-2-oxopiperazin-1-yl)propyl)-7′,8′-dihydro-3′H-spiro[cyclopropane-1,6′-quinazolin]-4′(5′H)-one] was run?
**A.** 5000 to 500000 nM

**Q.** How did the IC50 turn out when O=c1[nH]c(CCCN2CCN(c3ccc(Cl)cc3Cl)CC2)nc2c1CC1(CC2)CC1 [Compound 34, 2′-(3-(4-(2,4-dichlorophenyl)piperazin-1-yl)propyl)-7′,8′-dihydro-3′H-spiro[cyclopropane-1,6′-quinazolin]-4′(5′H)-one] was run?
**A.** 1 to 500 nM

**Q.** O=c1[nH]c(C2=C[C@H](N3CCN(c4ccccc4F)CC3)CC2)nc2c1CC1(CC2)CC1 [Compound 116, (R)-2′-(3-(4-(2-fluorophenyl)piperazin-1-yl)cyclopent-1-en-1-yl)-7′,8′-dihydro-3′H-spiro[cyclopropane-1,6′-quinazolin]-4′(5′H)-one] was tested. Which IC50 did it give?
**A.** 1 to 500 nM

**Q.** Which IC50 does the source give for O=c1[nH]c(C2=C[C@H](N3CCN(c4ccc(F)cc4)CC3)CC2)nc2c1CC1(CC2)CC1 [Compound 42, (R)-2′-(3-(4-(4-fluorophenyl)piperazin-1-yl)cyclopent-1-en-1-yl)-7′,8′-dihydro-3′H-spiro[cyclopropane-1,6′-quinazolin]-4′(5′H)-one] here?
**A.** 1 to 500 nM

**Q.** CNC(=O)c1cnc(N2CCN([C@H]3C=C(c4nc5c(c(=O)[nH]4)CC4(CC5)CC4)CC3)CC2)c(Cl)c1 [Compound 103, (R)-5-chloro-N-methyl-6-(4-(3-(4′-oxo-4′,5′,7′,8′-tetrahydro-3′H-spiro[cyclopropane-1,6′-quinazolin]-2′-yl)cyclopent-2-en-1-yl)piperazin-1-yl)nicotinamide] was tested. Which IC50 did it give?
**A.** 1 to 500 nM

**Q.** For CNC(=O)c1cccc(N2CCN([C@H]3C=C(c4nc5c(c(=O)[nH]4)CC4(CC5)CC4)CC3)CC2)c1 [Compound 87, (R)—N-methyl-3-(4-(3-(4′-oxo-4′,5′,7′,8′-tetrahydro-3′H-spiro[cyclopropane-1,6′-quinazolin]-2′-yl)cyclopent-2-en-1-yl)piperazin-1-yl)benzamide], which IC50 is on record?
**A.** 1 to 500 nM

**Q.** Which IC50 does the source give for CNC(=O)c1ccc(N2CCN([C@H]3C=C(c4nc5c(c(=O)[nH]4)CC4(CC5)CC4)CC3)CC2)nc1 [Compound 76, (R)—N-methyl-6-(4-(3-(4′-oxo-4′,5′,7′,8′-tetrahydro-3′H-spiro[cyclopropane-1,6′-quinazolin]-2′-yl)cyclopent-2-en-1-yl)piperazin-1-yl)nicotinamide] here?
**A.** 1 to 500 nM

Reference: US9359367B2, “Tetrahydroquinazolinone derivatives as PARP inhibitors” (Lupin Limited, priority 2012, dated 2016)
